Test results from PubChem BioAssay AID1963868 (Molecular Pharmacology Branch, DTP, NCI, 2024).

Test system: KRAS PDC tumor spheroids (HUVEC+MSC), viability
Experiment: Anticancer human tumor 254851-301-R-J1-PDC patient-derived colon carcinoma cell line growth inhibition [KRAS2]
Settings: for IC50: curve of first compound; for viability, T/C: stronger effect = lower value
Procedure, shortened: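 KRAS-mutant tumor cells were grown as spheroids with HUVEC endothelial cells and human MSCs as stroma. Targeted agents were tested alone and with KRAS pathway inhibitors. Doses started at or near clinical Cmax, or 10 microM, descending half-log.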

[1] = second compound 0.1 µM, first compound 0.0316 µM
[2] = second compound 0.1 µM, first compound 0.1 µM
[3] = second compound 0.1 µM, first compound 0.316 µM
[4] = second compound 0.1 µM, first compound 1 µM
[5] = second compound 0.1 µM, first compound 3.16 µM
[6] = second compound 0.1 µM, first compound 10 µM
[7] = second compound 0.316 µM, first compound 0.0316 µM
[8] = second compound 0.316 µM, first compound 0.1 µM
[9] = second compound 0.316 µM, first compound 0.316 µM
[10] = second compound 0.316 µM, first compound 1 µM
[11] = second compound 0.316 µM, first compound 3.16 µM
[12] = second compound 0.316 µM, first compound 10 µM
[13] = second compound 1 µM, first compound 0.0316 µM
[14] = second compound 1 µM, first compound 0.1 µM
[15] = second compound 1 µM, first compound 0.316 µM
[16] = second compound 1 µM, first compound 1 µM
[17] = second compound 1 µM, first compound 3.16 µM
[18] = second compound 1 µM, first compound 10 µM
[19] = second compound 3.16 µM, first compound 0.0316 µM
[20] = second compound 3.16 µM, first compound 0.1 µM
[21] = second compound 3.16 µM, first compound 0.316 µM
[22] = second compound 3.16 µM, first compound 1 µM
[23] = second compound 3.16 µM, first compound 3.16 µM
[24] = second compound 3.16 µM, first compound 10 µM
[25] = second compound 10 µM, first compound 0.0316 µM
[26] = second compound 10 µM, first compound 0.1 µM
[27] = second compound 10 µM, first compound 0.316 µM
[28] = second compound 10 µM, first compound 1 µM
[29] = second compound 10 µM, first compound 3.16 µM
[30] = second compound 10 µM, first compound 10 µM
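Note: spheroids exposed to compounds for seven days before readout.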
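Throughout, for viability, T/C: 100% = DMSO vehicle control luminescence of the spheroids.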

For `CC(C)NCC(C(=O)N1CCN(c2ncnc3c2C(C)CC3O)CC1)c1ccc(Cl)cc1` (stereo not given) + CC1OCC2(CCN(c3cnc(Sc4ccnc(N)c4Cl)c(N)n3)CC2)C1N, the IC50 (second compound 0.1 µM) was over 10 µM, the IC50 (second compound 0.316 µM) was over 10 µM and the IC50 (second compound 1 µM) was over 10 µM. For the same molecule, the IC50 (second compound 3.16 µM) was over 10 µM, the IC50 (second compound 10 µM) was over 10 µM and the viability, T/C [1] was 104%. It also gave a viability, T/C [2] of 97.1%, a viability, T/C [3] of 103% and a viability, T/C [4] of 93.2%. It also gave a viability, T/C [5] of 102%, a viability, T/C [6] of 85.3% and a viability, T/C [7] of 93%. For the same molecule, the viability, T/C [8] was 86.6%, the viability, T/C [9] was 75.4% and the viability, T/C [10] was 79.6%. The viability, T/C [11] was 79.5%, the viability, T/C [12] was 88.4% and the viability, T/C [13] was 72.4%. The viability, T/C [14] was 72.4%, the viability, T/C [15] was 83.1% and the viability, T/C [16] was 75.6%. It also gave a viability, T/C [17] of 69.6%, a viability, T/C [18] of 68.5% and a viability, T/C [19] of 58.4%. It also gave a viability, T/C [20] of 68.9%, a viability, T/C [21] of 64.9% and a viability, T/C [22] of 66.4%. The viability, T/C [23] was 67.4%, the viability, T/C [24] was 70.8% and the viability, T/C [25] was 58.6%. The viability, T/C [26] was 64.5%, the viability, T/C [27] was 65.7% and the viability, T/C [28] was 60.9%. It also gave a viability, T/C [29] of 55.9% and a viability, T/C [30] of 58.4%.
With `CC1OCC2(CCN(c3cnc(Sc4ccnc(N)c4Cl)c(N)n3)CC2)C1N` (stereo not given) + COc1cc2nc(C)nc(NC(C)c3cc(N)cc(C(F)(F)F)c3)c2cc1OC1CCOC1 the IC50 (second compound 0.1 µM) was over 10 µM, the IC50 (second compound 0.316 µM) was over 10 µM and the IC50 (second compound 1 µM) was over 10 µM. For the same molecule, the IC50 (second compound 3.16 µM) was over 10 µM, the IC50 (second compound 10 µM) was over 10 µM and the viability, T/C [1] was 118%. It also gave a viability, T/C [2] of 102%, a viability, T/C [3] of 91.7% and a viability, T/C [4] of 78.3%. The viability, T/C [5] was 82.6%, the viability, T/C [6] was 75.2% and the viability, T/C [7] was 105%. For the same molecule, the viability, T/C [8] was 99.9%, the viability, T/C [9] was 107% and the viability, T/C [10] was 80%. For the same molecule, the viability, T/C [11] was 80.7%, the viability, T/C [12] was 76.7% and the viability, T/C [13] was 98.7%. It also gave a viability, T/C [14] of 109%, a viability, T/C [15] of 103% and a viability, T/C [16] of 78.4%. The viability, T/C [17] was 78.6%, the viability, T/C [18] was 70.3% and the viability, T/C [19] was 83.8%. The viability, T/C [20] was 87.8%, the viability, T/C [21] was 78.6% and the viability, T/C [22] was 69.8%. For the same molecule, the viability, T/C [23] was 80%, the viability, T/C [24] was 62.8% and the viability, T/C [25] was 76.4%. For the same molecule, the viability, T/C [26] was 82.5%, the viability, T/C [27] was 70.9% and the viability, T/C [28] was 72%. For the same molecule, the viability, T/C [29] was 64.4% and the viability, T/C [30] was 64.3%.
